# Reference: patent publication US20240156898A1, “METHODS AND COMPOSITIONS FOR TREATING OCULAR DISORDERS AND DISEASES” (ONL Therapeutics, Inc., priority 2021, published 2024)
# Residues, ends and D or L forms follow the SMILES beside them.
# Tests used:
# [1] = minipig, in vivo
# Experimental: Seven animals received a repeat IVT dose at 2 mg/mL (0.1 mg/eye) on Day 90. […] Vitreous humor, retina, and choroid were collected on days 1, 7, 14, 28, and 88.
# in vivo = details: rabbit
# Experimental: (§1) Body weights were measured and recorded prior to first dose, approximately weekly (for surviving animals through Week 12), and prior to euthanasia. […] Ophthalmic examinations were performed using the Hackett-McDonald Scoring System on Days 0, 7, 14, 28, 90, 97, 151, and 168. Pharmacokinetic analyses were performed on the vitreous humor concentration data.
# (§2) Seven animals received a repeat IVT dose at 2 mg/mL (0.1 mg/eye) on Day 90.
# (§3) Vitreous humor, retina, and choroid were collected on days 1, 7, 14, 28, 42, 61, 90, 97, 151, and 168. Eyes were enucleated, snap frozen using liquid nitrogen, and kept on dry ice or frozen at −80° C. until dissected for collection of aqueous humor, vitreous humor, retina, choroid, iris-ciliary body (ICB), and lens.
# (§4) To homogenize ocular tissue samples, weighed amounts of control bovine vitreous humor, retina, and choroid were homogenized in USA scientific impact resistant microtubes containing 2.8 mm ceramic beads. Unknown rabbit vitreous humor, retina, and choroid samples were homogenized in USA scientific impact resistant microtubes containing 2.8 mm ceramic beads. Each vitreous humor sample was homogenized after the addition of 5000 microliters (uL) diluent (acetonitrile: water: 1 M hydrochloric acid (70:20:10, v/v/v). Retina tissues were homogenized after the addition of diluent (IPA:NH4OH (1000:1, v/v)) at a 1:5 ratio (parts tissue to parts diluent), and choroid samples were homogenized following addition of diluent at a 1:19 ratio. Tissues were homogenized at 5500 rpm for 3×30 second cycles with 20 second pauses between cycles until homogenized. Choroid went through two runs of homogenization, and retina and vitreous humor samples went through one run of homogenization.
# (§5) Preparation of Standards, Unknowns, Blanks, and Blanks with Internal Standard for Vitreous Humor Analysis: • In a polypropylene tube, 10 uL of working calibration standard was added to 90 uL control blank vitreous humor. For blanks and blanks with internal standard, 100 uL of control blank bovine vitreous humor was added. Five hundred (500) uL of acetonitrile: water:1M hydrochloric acid (70:20:10, v/v/v) was added to each standard and 500 uL of acetonitrile: water:1M hydrochloric acid (70:20:10, v/v/v) was added to blanks. Standards and blanks were vortex mixed. One hundred (100) uL of each standard, blank or unknown vitreous humor sample homogenate was then aliquoted. One hundred (100) uL of IPA:NH4OH (1000:1, v/v) was added to each sample. The samples were vortex mixed for 1 minute, then centrifuged for 10 minutes at 4,000 rpm (4° C.). […] Fifty (50.0) uL of acetonitrile:water:1M hydrochloric acid (70:20:10, v/v/v) was added to blank without IS. Two hundred (200) uL of water was added. The samples were then mixed using a multichannel pipette, and supernatant transferred to an autosampler plate for analysis.
# (§6) In a 96-well plate, 100 uL of control retina or choroid homogenate was added for calibration samples and unknowns. For blanks and blanks with internal standard, 100 uL of control bovine retina or choroid tissue homogenate was added. […] Twenty (20) uL acetonitrile:water:formic acid (25:75:0.1, v/v/v) was added to each blank without IS sample. Three-hundred (300) uL of IPA:NH4OH (1000:1, v/v) was added to each choroid or retina sample. The samples were then vortex mixed for 5 minutes. The samples were allowed to set for 15 minutes, vortex mixed for an additional minute, and centrifuged for 10 minutes at 4,000 rpm (4° C.).
# (§7) Three-hundred-fifty (350) uL of each sample was then aliquoted to a 96-well plate. The samples were dried with nitrogen at 35° C.
# [2] = Ocular tissue concentration of ONL1204 after intravitreal injection in rabbit eye (LC-MS/MS); details: 0.1 mg/eye
# Experimental: as §1, §2, §3, §4, §5, §6, §7
# [3] = tested on: retinal pigment epithelial cell death; experiment: Sodium iodate (NaIO3) challenge study, duration of protection, fluorescein angiography lesion area; details: rabbit
# Experimental: NaIO3 solution: • Challenge Article: NaIO3 • Administration Route: IV • Frequency of Administration: Day 4 (day 7 endpoint), 14 (day 17 endpoint), 28 (day 31 endpoint), 59 (day 61 endpoint), or 78 (day 81 endpoint (rechallenged group)). • Solution: 20 mg/ml in 0.9% Injectable Saline • Dose: 17 or 18 mg/kg body weight
# Test System: • Species: Rabbit • Expected Age: Animals were between 3 and 4 months of age • Expected Body Range: Approximately 2.0 Kg, Identification Animals were individually • housed and identified via cage card and ear ID and/or ear tattoo. • Experimental History: Purpose-bred and experimentally naïve at the onset of the study
# Intravitreal Injection: • On Day 0, eyes were anesthetized with proparacaine and pupils dilated with tropicamide. Animals were anesthetized with isoflurane vapors to effect. A few drops of Betadine were placed on the eye and then rinsed with ophthalmic eye wash. A clean speculum was placed in the eye (rinsed in Betadine and sterile saline) and the temporal sclera was marked with calipers 3.5 mm from the corneal border. […] In order to reduce the potential for reflux of the test article the needle remained in the vitreous for at least 10 seconds following injection. No reflux was noted on the dosing record.
# Model Induction: • A 20 mg/ml solution of NaIO3 was prepared in 0.9% injectable saline aliquoted into 4 batches and frozen at −20° C. For Groups 1-8, 1 batch of NaIO3 was thawed prior to injection. Groups 9-10 were added after the Study was underway therefore a new solution of 20 mg/ml NaIO3 was prepared in 0.9% injectable saline and frozen at −20° C. and thawed prior to injection. Test article and NaIO3 were injected into the left ear.
# Animals were weighed and anesthetized with isoflurane vapors to effect. The left ear was shaved and swabbed with 10% alcohol prior to injection. An indwelling catheter was placed in the left marginal ear vein and flushed with 0.9% injectable saline. […]
# Data Analysis: • The area of RPE depigmentation is reported as a unitless value provided by the ImageJ software. […] The resulting area was then measured.
structure (smiles),measurement,setting,value
CC[C@H](C)[C@H](NC(=O)[C@H](Cc1ccc(O)cc1)NC(=O)[C@H](CC(N)=O)NC(=O)[C@@H](NC(=O)[C@H](C)NC(=O)CNC(=O)[C@H](CC(C)C)NC(=O)[C@H](Cc1ccc(O)cc1)NC(=O)[C@@H](NC(=O)[C@H](Cc1cnc[nH]1)NC(=O)[C@@H](N)Cc1cnc[nH]1)[C@@H](C)CC)C(C)C)C(=O)N[C@@H](Cc1ccc(O)cc1)C(N)=O [ONL1204] (H-HHIYLGAVNYIY-NH2),detection in the vitreous humor across all time points analyzed,[1],detected in the vitreous humor across all time points analyzed
same,half-life,in vivo,280 days
same,tissue level at time at 4032 h,[2]; retina,8.4 ng/g
same,tissue level at time at 24 h,"[2]; retina, Conc. of ONL1204 Retina, single IVT 0.1 mg/eye, Day 1, LLOQ 3.00 ng/g",12.7 ng/g
same,tissue level at time at 168 h,"[2]; retina, Conc. of ONL1204 Retina, single IVT 0.1 mg/eye, Day 7, LLOQ 3.00 ng/g",85.2 ng/g
same,tissue level at time at 336 h,"[2]; retina, Conc. of ONL1204 Retina, single IVT 0.1 mg/eye, Day 14, LLOQ 3.00 ng/g",5.95 ng/g
same,half-life,"[2]; vitreous humor, other: intravitreal injection",279 days
same,lesion size vs negative controls and vs 25 ug,"[3]; 100 ug per eye IVT on Day 0, NaIO3 challenge Day 14",significantly smaller lesion size
same,lesion size vs negative control animals and vs 25 ug,"[3]; 100 ug per eye IVT on Day 0, NaIO3 challenge Day 28",significantly smaller lesion size
same,mean lesion size across challenge time points,"[3]; 25 or 100 ug per eye IVT on Day 0, NaIO3 challenge Days 4 to 59",substantive reduction
